Paper PMC12162769, “Synthesis and Evaluation of a Hybrid Miltefosine-Silver Nanoparticle Complex: Synergistic Interaction with Benznidazole Against Trypanosoma cruzi” (Acta Parasitologica, 2025)
Values after ≈ are worked out from the molar mass of the structure shown.

Legend:
[1] = test system: T. cruzi ATCC 50825 strain epimastigotes; assay: Antitrypanosomal activity, broth microdilution with MTT viability (IC50); format: cell-based, Trypanosoma cruzi; details: for SI (selectivity index): IC50 fibroblasts (L929) / IC50 T. cruzi epimastigotes; for IC50: Trypanosoma cruzi
Protocol: The Trypanosoma cruzi ATCC 50825 reference strain and the L929 mouse fibroblast cell line (American Type Culture Collection, USA) used in this study were obtained from the Parasite Bank of […] Bayar University Faculty of Medicine. […] For the determination of antitrypanosomal activity, 100 μL of RPMI-1640 medium was distributed into each well of sterile, flat-bottom, 96-well microplates. Serial dilutions of the hybrid NP complex were prepared in the range of 2500-19.5 μg/mL, miltefosine in the range of 128-1 μg/mL, and benznidazole in the range of 320-0.30 μg/mL. […] The morphological structure and motility of the epimastigotes in all wells were observed under an inverted microscope. The lowest concentration of the active substance at which all parasites were immobile and their morphology was disrupted was determined as the minimum parasiticidal concentration (MPC). […] Absorbance values were measured at 570 nm using a Thermo Varioskan model spectrophotometer (USA). IC50 values indicating antitrypanosomal activity were calculated using GraphPad Prism 8.4.2 software. Efficacy tests were repeated three times on different days.

[2] = test system: T. cruzi ATCC 50825 strain epimastigotes; assay: Minimum parasiticidal concentration (MPC), motility and morphology under inverted microscope; format: cell-based, Trypanosoma cruzi
[3] = Cytotoxic activity, MTT assay; format: cell-based; details: mouse, L929 fibroblast cells, read-out: IC50 L929 (cytotoxicity)
Protocol: The Trypanosoma cruzi ATCC 50825 reference strain and the L929 mouse fibroblast cell line (American Type Culture Collection, USA) used in this study were obtained from the Parasite Bank of […] Bayar University Faculty of Medicine. Fibroblasts preserved in liquid nitrogen were treated with RPMI-1640 and passaged into RPMI-1640 medium containing 10% FBS (fetal bovine serum). The cells were incubated at 37 °C with 5% CO2 for 48 h. The number and viability of proliferating cells were determined using Trypan Blue staining and a hemocytometer. A 100 μL cell suspension containing 10^5 cells/mL was distributed into 96-well microplates. Serial dilutions of the […] suspension (final concentration range: 5000-39 μg/mL), miltefosine (final concentration range: 512-0.125 μg/mL), and benznidazole (final concentration range: 640-0.60 μg/mL) were prepared in a separate microplate and transferred to the microplates containing the cells. The plates were incubated at 37 °C with 5% CO2 for 48 h. […] IC50 values indicating cytotoxic activity were calculated using GraphPad Prism 8.4.2 software. The cytotoxic activity tests were repeated three times on different days.

T. cruzi amastigote = test system: T. cruzi amastigote; design: method as in Gulin et al. (2022) [17]; details: amastigote forms; ref Gulin et al. (2022) [17]; cited from earlier work
T. cruzi trypomastigote = test system: T. cruzi trypomastigote; design: method as in Gulin et al. (2022) [17]; details: trypomastigote forms; ref Gulin et al. (2022) [17]; cited from earlier work
[4] = ATCC50825, 24 h, 24 h, epimastigotes
[5] = ATCC50825, 48 h, 48 h, epimastigotes
[6] = ATCC50825, 72 h, 72 h, epimastigotes

Row | Compound | SI (selectivity index) ([1]; 24 h) | SI (selectivity index) ([1]; 48 h) | SI (selectivity index) ([1]; 72 h) | IC50 [1, 4] | IC50 [1, 5] | IC50 [1, 6] | MPC (minimum parasiticidal concentration) ([2]; 24 h) | MPC (minimum parasiticidal concentration) ([2]; 48 h) | MPC (minimum parasiticidal concentration) ([2]; 72 h) | IC50 at 24 h [3] | IC50 at 48 h [3] | IC50 at 72 h [3] | IC50 T. cruzi ([1]; 72 h, epimastigotes) | Selectivity (SI) as worded ([1]; over 24, 48 and 72 h, L929 vs T. cruzi epimastigotes) | IC50 (T. cruzi amastigote) | IC50 (T. cruzi trypomastigote)
1 | O=C(Cn1ccnc1[N+](=O)[O-])NCc1ccccc1 [Benznidazole] | 15 | 18.2 | 23 | 67.1 µg/mL (≈ 258 µM) | 45 µg/mL (≈ 173 µM) | 34.5 µg/mL (≈ 133 µM) | 155 µg/mL | 155 µg/mL | 77.5 µg/mL | 1010 µg/mL (≈ 3880 µM) | 822 µg/mL (≈ 3160 µM) | 807 µg/mL (≈ 3100 µM) |  |  |  | 
2 | CCCCCCCCCCCCCCCCOP(=O)([O-])OCC[N+](C)(C)C [Miltefosine] | 1.5 | 2.2 | 4.2 | 26.2 µg/mL (≈ 64.2 µM) | 15 µg/mL (≈ 36.8 µM) | 6.42 µg/mL (≈ 15.8 µM) | 128 µg/mL | 128 µg/mL | 64 µg/mL | 38 µg/mL (≈ 93.4 µM) | 33.5 µg/mL (≈ 82.2 µM) | 27 µg/mL (≈ 66.2 µM) | 6.42 µg/mL (≈ 15.8 µM) | > 1 | 480 nM | 550 nM
